The record followed here is ChEMBL document CHEMBL1157275, “Biological activities of 7-epiclusianone” (J Nat Prod, 1999).

Converted amounts (≈) assume the structure as drawn. The source made the active and inactive calls. No cut-off for these calls is given here.

Data set [1] relates to Trypanosoma cruzi. The experiment in a line: Antitrypanosomal activity against Trypanosoma cruzi Y trypomastigotes infected in Swiss albino mouse assessed as reduction in parasitaemia at 500 mg/kg, po after 6 hrs. The data set is classed as functional, organism-based. More on the design: dose 500 mg/kg.
The subject of data set [2] is Clavibacter michiganensis subsp. michiganensis. The experiment in a line: Antimicrobial activity against Clavibacter michiganensis subsp. michiganensis. Format: functional.
For another data set, the system named is Staphylococcus aureus. The experiment in a line: Antibacterial activity against Staphylococcus aureus. Format: functional.
Data set [3] concerns Trypanosoma cruzi. The experiment in a line: Antitrypanosomal activity against Trypanosoma cruzi Y trypomastigotes infected in Swiss albino mouse assessed as mortality rate at 100 mg/kg, po daily for 4 days assessed after 6 to 9 days. The data set is classed as functional, organism-based. Further details: dose 100 mg/kg.
The subject of data set [4] is Cladosporium sphaerospermum. The experiment in a line: Antifungal activity against Cladosporium sphaerospermum. The data set is classed as functional, organism-based.
Data set [5] in a line: Toxicity in Artemia salina. As to conditions: in vivo. Format: organism-based.
Data set [6] relates to Trypanosoma cruzi. The data set can be described thus: Antitrypanosomal activity against Trypanosoma cruzi Y trypomastigotes infected in Swiss albino mouse blood assessed as reduction of parasite number at 125 ug/mL after 24 hrs. Format: functional. Further details: scale not given: the % may be the effect or the level left.
For a further data set, the system named is Biomphalaria glabrata. The data set can be described thus: Molluscicidal activity against Biomphalaria glabrata at 20 ppm. Format: functional, organism-based.
Data set [7] relates to Trypanosoma cruzi. The data set can be described thus: Antitrypanosomal activity against Trypanosoma cruzi Y trypomastigotes infected in Swiss albino mouse blood assessed as reduction of parasite number at 250 ug/mL after 24 hrs. Format: functional. Further details: scale not given: the % may be the effect or the level left.
In data set [8] the test system is Trypanosoma cruzi. The experiment in a line: Antitrypanosomal activity against Trypanosoma cruzi Y trypomastigotes infected in Swiss albino mouse blood assessed as reduction of parasite number at 500 ug/mL after 24 hrs. Format: functional. Further details: scale not given: the % may be the effect or the level left.
The test system of another data set is Listeria monocytogenes. The experiment in a line: Antimicrobial activity against Listeria monocytogenes. Format: functional.

Regarding `CC(C)=CC[C@H]1C[C@]2(CC=C(C)C)C(=O)C(C(=O)c3ccccc3)=C(O)[C@](CC=C(C)C)(C2=O)C1(C)C`, the outcome with Trypanosoma cruzi [1] was Active. Also, in data set [2], the MIC – broadly, the lowest concentration that inhibits growth of the organism – was found to be 4 µg/mL (≈ 7.96 µM). For the same molecule, the IC100 with Staphylococcus aureus and in the data set with Listeria monocytogenes was 80 µg/mL each time. In addition, the outcome (in the data set with Trypanosoma cruzi [3]; in [4]; in the data set with Biomphalaria glabrata) was inactive. Besides, the LC50 (in general, the concentration lethal to half of the exposed cells or organisms) in data set [5] worked out at 49.7 µM. Moreover, the figures for the Activity in the data set with Trypanosoma cruzi [6], in the data set on Trypanosoma cruzi [7] and with Trypanosoma cruzi [8] were 17%, 38% and 92%, respectively.
`O=C(Cn1ccnc1[N+](=O)[O-])NCc1ccccc1`: the result with Trypanosoma cruzi [1] and in the data set on Trypanosoma cruzi [3] was Active.
